{"source": "ChEMBL document CHEMBL1201862", "about": "“PubChem BioAssay data set” (2004)", "key": {"[1]": {"molecular_target": "T1, Sentrin-specific protease 7 (Homo sapiens, UniProt Q9BQF6)", "T1 sequence (Q9BQF6 whole entry)": "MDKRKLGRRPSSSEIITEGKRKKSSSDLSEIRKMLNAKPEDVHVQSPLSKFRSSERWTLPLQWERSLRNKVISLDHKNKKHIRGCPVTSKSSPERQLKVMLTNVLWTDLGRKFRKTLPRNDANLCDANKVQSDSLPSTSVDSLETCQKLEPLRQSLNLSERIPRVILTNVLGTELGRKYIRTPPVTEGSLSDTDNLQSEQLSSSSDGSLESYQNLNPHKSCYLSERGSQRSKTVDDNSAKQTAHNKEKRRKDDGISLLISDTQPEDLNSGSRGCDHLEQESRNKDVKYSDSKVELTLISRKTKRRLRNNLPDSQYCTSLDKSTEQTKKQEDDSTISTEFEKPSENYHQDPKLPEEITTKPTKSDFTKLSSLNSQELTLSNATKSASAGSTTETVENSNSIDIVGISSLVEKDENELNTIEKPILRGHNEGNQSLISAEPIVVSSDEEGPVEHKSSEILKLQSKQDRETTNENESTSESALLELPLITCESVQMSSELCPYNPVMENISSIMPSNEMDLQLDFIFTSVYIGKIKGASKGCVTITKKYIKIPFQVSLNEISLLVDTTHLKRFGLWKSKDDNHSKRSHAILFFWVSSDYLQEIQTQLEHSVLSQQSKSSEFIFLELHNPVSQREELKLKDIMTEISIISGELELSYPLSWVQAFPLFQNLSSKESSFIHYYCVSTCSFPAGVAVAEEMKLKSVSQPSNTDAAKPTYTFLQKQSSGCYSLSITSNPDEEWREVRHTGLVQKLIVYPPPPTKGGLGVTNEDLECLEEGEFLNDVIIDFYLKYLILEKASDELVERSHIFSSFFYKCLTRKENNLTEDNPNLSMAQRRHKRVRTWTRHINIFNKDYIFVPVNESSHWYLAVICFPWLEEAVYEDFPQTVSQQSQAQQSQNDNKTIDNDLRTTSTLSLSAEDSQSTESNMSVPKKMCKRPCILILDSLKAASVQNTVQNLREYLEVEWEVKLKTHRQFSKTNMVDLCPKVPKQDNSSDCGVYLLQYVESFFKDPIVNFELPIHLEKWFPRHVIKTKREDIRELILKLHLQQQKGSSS", "assay": "inhibition of human SENP7 cleavage activity – biochemical, luminescence, SAR follow-up (AID 504497)", "format": "functional"}, "Streptokinase A": {"molecular_target": "T2, Streptokinase A (Streptococcus pyogenes serotype M1, UniProt P10520)", "T2 sequence (P10520 whole entry)": "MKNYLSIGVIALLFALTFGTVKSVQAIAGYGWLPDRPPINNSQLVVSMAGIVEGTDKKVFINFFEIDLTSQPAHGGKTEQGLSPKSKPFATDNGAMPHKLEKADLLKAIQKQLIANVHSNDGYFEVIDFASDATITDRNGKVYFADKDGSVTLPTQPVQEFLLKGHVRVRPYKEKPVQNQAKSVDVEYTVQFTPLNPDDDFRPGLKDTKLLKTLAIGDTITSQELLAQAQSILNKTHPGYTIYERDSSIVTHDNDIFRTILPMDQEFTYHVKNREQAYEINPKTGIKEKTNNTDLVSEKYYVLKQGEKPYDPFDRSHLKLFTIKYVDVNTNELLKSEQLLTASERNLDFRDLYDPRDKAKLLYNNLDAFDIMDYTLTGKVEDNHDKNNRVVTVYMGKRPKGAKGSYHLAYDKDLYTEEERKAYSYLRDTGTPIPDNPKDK", "assay": "viability-normalized secreted streptokinase activity reduction – plasminogen activation absorbance, OD405, dose response (AID 1914);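 note: secreted streptokinase activity via plasminogen activation per viability signal from cell pellet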", "format": "functional, Streptococcus pyogenes M1 GAS"}, "[2]": {"molecular_target": "Small ubiquitin-related modifier 1 (Homo sapiens, UniProt P63165)", "sequence (P63165 whole entry)": "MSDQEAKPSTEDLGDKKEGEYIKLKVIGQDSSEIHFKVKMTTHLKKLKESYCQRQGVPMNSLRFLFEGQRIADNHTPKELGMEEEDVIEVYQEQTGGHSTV", "assay": "SUMO1 protein interaction blockers, potency – biochemical, fluorescence polarization, uHTS hits, dose response (AID 624382)", "format": "functional", "settings": "read-out: IC50_Mean"}, "[3]": {"molecular_target": "Small ubiquitin-related modifier 2 (Homo sapiens, UniProt P61956)", "sequence (P61956 whole entry)": "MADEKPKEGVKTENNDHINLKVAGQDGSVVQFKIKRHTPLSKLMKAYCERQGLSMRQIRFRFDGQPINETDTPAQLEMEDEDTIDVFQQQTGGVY", "assay": "SUMO2 binding disruption by SUMO1 hits – biochemical, FRET, human SUMO2, uHTS hits, selectivity assay for SUMO1 interaction inhibitor project, dose response (AID 624384)", "format": "functional", "settings": "read-out: IC50_Mean"}, "[4]": {"molecular_target": "T3, Mannose-6-phosphate isomerase (Homo sapiens, UniProt P34949)", "T3 sequence (P34949 whole entry)": "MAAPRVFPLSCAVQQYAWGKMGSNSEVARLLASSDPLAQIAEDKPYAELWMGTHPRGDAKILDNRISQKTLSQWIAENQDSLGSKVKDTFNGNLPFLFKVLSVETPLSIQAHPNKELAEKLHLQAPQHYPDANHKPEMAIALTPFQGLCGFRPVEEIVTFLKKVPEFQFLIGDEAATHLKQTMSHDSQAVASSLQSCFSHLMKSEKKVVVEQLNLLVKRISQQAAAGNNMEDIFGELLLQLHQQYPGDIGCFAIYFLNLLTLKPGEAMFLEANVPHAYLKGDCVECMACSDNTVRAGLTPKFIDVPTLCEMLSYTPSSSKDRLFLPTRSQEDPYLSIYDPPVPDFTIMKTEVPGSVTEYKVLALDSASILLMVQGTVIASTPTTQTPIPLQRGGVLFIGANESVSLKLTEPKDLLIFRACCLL", "assay": "MPI enzyme activity inhibition – biochemical, fluorescence intensity, coupled assay, primary screen (AID 1209)"}, "[5]": {"molecular_target": "T4, Bifunctional protein GlmU (Mycobacterium tuberculosis, UniProt P9WMN3)", "T4 sequence (P9WMN3 whole entry)": "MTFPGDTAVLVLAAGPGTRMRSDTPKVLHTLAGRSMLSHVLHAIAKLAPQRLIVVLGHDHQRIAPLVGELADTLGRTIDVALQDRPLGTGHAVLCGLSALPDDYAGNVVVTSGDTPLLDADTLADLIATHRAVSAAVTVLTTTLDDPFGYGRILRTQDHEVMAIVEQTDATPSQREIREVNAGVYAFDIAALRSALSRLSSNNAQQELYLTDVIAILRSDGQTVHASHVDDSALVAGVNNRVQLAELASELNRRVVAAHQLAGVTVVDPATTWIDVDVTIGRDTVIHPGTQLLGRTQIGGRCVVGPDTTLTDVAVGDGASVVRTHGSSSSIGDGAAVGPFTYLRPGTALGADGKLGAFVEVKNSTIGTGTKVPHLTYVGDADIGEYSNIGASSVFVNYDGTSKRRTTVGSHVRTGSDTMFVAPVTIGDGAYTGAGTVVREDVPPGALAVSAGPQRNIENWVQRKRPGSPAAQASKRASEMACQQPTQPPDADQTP", "assay": "Inhibitors of Mycobacterial Glucosamine-1-phosphate acetyl transferase (GlmU). Secondary screen.", "parameters": "species or system Mycobacterium tuberculosis H37Rv"}}, "note": "The source made the active and inactive calls.", "data": [{"compound": "COc1cc(C(=O)c2nccc3cc(OC)c(OC)cc23)c([N+](=O)[O-])cc1OC", "values": [{"measurement": "IC50", "setting": "[1]", "value": "24.6 µM (active)"}]}, {"compound": "N#Cc1c(O)nc(SCC(=O)N2c3ccccc3Sc3ccccc32)nc1-c1ccccc1", "values": [{"measurement": "EC50", "setting": "Streptokinase A", "value": "> 150 µM (not active)"}, {"measurement": "IC50", "setting": "[2]", "value": "21 µM (inactive)"}, {"measurement": "IC50", "setting": "[3]", "value": "23.1 µM (inactive)"}]}, {"compound": "N=C1S/C(=C\\c2ccc(-c3ccccc3C(=O)O)o2)C(=O)N1c1ccc2c(c1)OCO2", "values": [{"measurement": "IC50", "setting": "[4]", "value": "11.1 µM (active)"}, {"measurement": "IC50", "setting": "[5]", "value": "153 µM (active)"}]}]}
